The numbers were not newly measured in PMC3184248 (Angewandte Chemie (International ed. in English), 2011), which cites them from elsewhere.

The conditions of series [1]: 1.5T, 37 °C.
For series [2] the following is noted: 1.5T, 37 °C. This is another data set of the same source.

Consider GdDTPA, for which the relaxivity in buffer in series [1] was 3.3 mM⁻¹ s⁻¹. The relaxivity in plasma in series [2] is 4.1 mM⁻¹ s⁻¹.
